Test results reported in publication PMC12957839, “Antiviral activity and mechanism of purine morpholine nucleoside analogues incorporating a sulfonamide fragment” (Journal of Advanced Research, 2025).
≈ marks a conversion by molar mass, not a printed value. Like-named read-outs stand apart in the source and are kept apart here.

Tests used:
PMMoV [1] = experiment: Antiviral activity assay against PMMoV, curative activity; format: in vivo, Pepper mild mottle virus (PMMoV); design: Curative activity: concentration or dose not given beside the values; details: for EC50: Pepper mild mottle virus, read-out: EC50 of curative activity
Procedure: (§1) Virions were isolated and extracted from leaves of N. benthamiana infected with PMMoV referring to the method recorded in the literature. And the inhibiting activities of C1–C38 against PMMoV were assessed with reference to the literature as well [26, 34].

PMMoV [2] = experiment: Antiviral activity assay against PMMoV, inactivating activity; format: in vivo, Pepper mild mottle virus (PMMoV); details: for pest or weed control at 500 µg/mL / EC50: Pepper mild mottle virus; for pest or weed control at 500 µg/mL: read-out: Inactivating activity; for EC50: read-out: EC50 of inactivating activity
Procedure: as §1

PMMoV CP and I3QHX5 = experiment: BiFC interaction of PMMoV CP and PMMoV CP^Y13A with I3QHX5 before and after application of C1; format: cell-based, N. benthamiana; details: addition of C1, 30, 36 and 42 hpi, Fig. 6A
Procedure: Designed primers to construct vectors of LCA and BiFC via homologous recombination. Extracted plasmids and waited for sequencing confirmation before transforming them into GV3101 (pU19). A. tumefaciens transient transformation solution (200 μM acetosyringone, 10 mM MgCl2, and 10 mM MES, pH = 5.6) was prepared to resuspend the organisms with a final OD600 of 1.0, then mixed them with equal OD600 and volume before being infiltrated into N. benthamiana of the same growth stage. […]

PMMoV CP [3] = molecular target: T1, PMMoV CP (Pepper mild mottle virus, UniProt P69509); experiment: Microscale thermophoresis (MST) binding affinity with PMMoV CP
Procedure: The binding affinities of compounds with PMMoV CP were analyzed by MST based on the procedures delineated in the literature.

PMMoV [4] = experiment: Antiviral activity assay against PMMoV, protective activity; format: in vivo, Pepper mild mottle virus (PMMoV); design: Protective activity: concentration or dose not given beside the values; details: for EC50: Pepper mild mottle virus, read-out: EC50 of protective activity
Procedure: as §1

PMMoV CP [5] = molecular target: T1, PMMoV CP; experiment: ABPP probe capture of PMMoV CP (Western blot), concentration dependence and competitive inhibition; format: binding; details: for capture of the 17 kDa protein from PMMoV: Western blot, identical concentration, Fig. S132; for capture of PMMoV CP: same concentration of 100 µM; for capture of PMMoV CP / labeling of PMMoV CP by probe: Fig. 1B
Source text: ABPP technology utilized its unique chemical probe strategy to selectively capture target proteins and was regarded as a well-established approach for discovering target proteins.

[6] = molecular target: PMMoV CP (Octet, in vitro) (pepper mild mottle virus); experiment: BLI; Octet, in vitro; which partner was immobilised is not stated
[7] = against PMMoV, average of three replicates, ± standard deviation
[8] = against PMMoV, at 500 µg/mL, average of three replicates, ± standard deviation

| Compound | EC50 (PMMoV [1]; [7]) | Curative activity (PMMoV [1]; [7]) | pest or weed control at 500 µg/mL (PMMoV [2]; [8]) | EC50 (PMMoV [2]; [7]) | EC50 (PMMoV [4]; [7]) | Protective activity (PMMoV [4]; [7]) | other results |
| --- | --- | --- | --- | --- | --- | --- | --- |
| CC(=O)OCC1OC(n2cnc3c(N4CCOCC4)ncnc32)C(NS(=O)(=O)c2ccc([N+](=O)[O-])cc2)C(OC(C)=O)C1OC(C)=O (stereo not shown) [C1] | 17 ± 3.9 µg/mL (≈ 25.1 µM) | 73.7 ± 5.2% | 76.4% | 37 ± 4.4 µg/mL (≈ 54.6 µM) | 86.9 ± 8.8 µg/mL (≈ 128 µM) | 64.3 ± 2.8% | Inactivating activity (PMMoV [2]; [8]): 76.4 ± 2.6%; effect on interaction of PMMoV CP and PMMoV CP^Y13A with I3QHX5 (PMMoV CP and I3QHX5): affected the interaction; Kd (PMMoV CP [3]): 1.5 µM; capture of the 17 kDa protein from PMMoV (PMMoV CP [5]): neither C1 nor DMSO exhibited such a capacity; competitive inhibition of C2 labeling of PMMoV CP (PMMoV CP [5]; increasing concentrations of C1, Fig. 1C): competitively inhibited the interaction of C2 with PMMoV CP; capture of PMMoV CP (PMMoV CP [5]): could not |
| C#CCN1CCN(c2ncnc3c2ncn3C2OC(COC(C)=O)C(OC(C)=O)C(OC(C)=O)C2NS(=O)(=O)c2ccc([N+](=O)[O-])cc2)CC1 (stereo not shown) [C2] | 66.6 ± 4.5 µg/mL (≈ 93.2 µM) | 67.3 ± 4.3% | 67.4 ± 3.9% | 40.7 ± 2.3 µg/mL (≈ 56.9 µM) | 64.5 ± 4.5 µg/mL (≈ 90.2 µM) | 65.9 ± 3.0% | capture of the 17 kDa protein from PMMoV (PMMoV CP [5]): capable of capturing the protein with a molecular weight of 17 kDa; labeling of PMMoV CP by probe (PMMoV CP [5]; concentrations of 10–50 µM): successfully labeled protein; labeling of PMMoV CP by probe (PMMoV CP [5]; concentrations reduced to 5–1 µM): failed to do so; capture of PMMoV CP (PMMoV CP [5]): could capture PMMoV CP |
| CC(=O)OCC1OC(n2cnc3c(N4CCOCC4)ncnc32)C(NS(=O)(=O)c2ccc(C)cc2)C(OC(C)=O)C1OC(C)=O (stereo not shown) [C24] | 30.7 ± 1.2 µg/mL (≈ 47.5 µM) | 72.5 ± 2.2% | 65.1 ± 4.2% | 145 ± 4.7 µg/mL (≈ 224 µM) | 919 ± 10.2 µg/mL (≈ 1420 µM) | 40.8 ± 3.5% | Kd (PMMoV CP [3]): 109 µM |
| CC(=O)OCC1OC(n2cnc3c(N4CCOCC4)nc(Cl)nc32)C(NS(=O)(=O)c2ccc(C)cc2)C(OC(C)=O)C1OC(C)=O (stereo not shown) [C25] | 167 ± 5.2 µg/mL (≈ 245 µM) | 59.0 ± 3.5% | 46.9 ± 1.8% | 573 ± 10.9 µg/mL (≈ 841 µM) | 345 ± 11.3 µg/mL (≈ 507 µM) | 52.3 ± 1.1% | Kd (PMMoV CP [3]): 264 ± 25.1 µM |
| CC(=O)OCC1OC(n2cnc3c(N4CCOCC4)nc(F)nc32)C(NS(=O)(=O)c2ccc(C(F)(F)F)cc2)C(OC(C)=O)C1OC(C)=O (stereo not shown) [C28] | 45.4 ± 3 µg/mL (≈ 63.2 µM) | 69.4 ± 4.9% | 44 ± 4.3% | 576 ± 14.9 µg/mL (≈ 801 µM) | 633 ± 13.6 µg/mL (≈ 881 µM) | 42.9 ± 0.7% |  |
| CC(=O)OCC1OC(n2cnc3c(N4CCOCC4)ncnc32)C(NS(=O)(=O)c2cccc(C(F)(F)F)c2)C(OC(C)=O)C1OC(C)=O (stereo not shown) [C29] | 64.8 ± 3.1 µg/mL (≈ 92.5 µM) | 69.8 ± 4.3% | 53.4 ± 0.8% | 353 ± 18.7 µg/mL (≈ 504 µM) | 88.4 ± 6.3 µg/mL (≈ 126 µM) | 64.9 ± 4.7% |  |
| CC(=O)OCC1OC(n2cnc3c(N4CCOCC4)ncnc32)C(NS(=O)(=O)c2ccc(F)cc2)C(OC(C)=O)C1OC(C)=O (stereo not shown) [C30] | 60.2 ± 3.1 µg/mL (≈ 92.5 µM) | 67.9 ± 3.3% | 61.7 ± 4.6% | 20.4 ± 4.9 µg/mL (≈ 31.4 µM) | 262 ± 10.3 µg/mL (≈ 402 µM) | 58.9 ± 3.8% |  |
| CC(=O)OCC1OC(n2cnc3c(N4CCOCC4)nc(F)nc32)C(NS(=O)(=O)c2ccc(F)cc2)C(OC(C)=O)C1OC(C)=O (stereo not shown) [C31] | 29.6 ± 1.1 µg/mL (≈ 44.3 µM) | 61.9 ± 3.3% | 68.5 ± 1.7% | 50 ± 2 µg/mL (≈ 74.8 µM) | 99.6 ± 3.8 µg/mL (≈ 149 µM) | 56.0 ± 1.9% |  |
| CC(=O)OCC1OC(n2cnc3c(N4CCOCC4)nc(Cl)nc32)C(NS(=O)(=O)c2ccc(F)cc2)C(OC(C)=O)C1OC(C)=O (stereo not shown) [C32] | 23.8 ± 5.5 µg/mL (≈ 34.7 µM) | 68.0 ± 2.7% | 67.9 ± 5.1% | 38 ± 4.4 µg/mL (≈ 55.5 µM) | 28.7 ± 4.4 µg/mL (≈ 41.9 µM) | 68.9 ± 2.0% |  |
| CC(=O)OCC1OC(n2cnc3c(N4CCOCC4)ncnc32)C(NS(=O)(=O)c2ccc(OC(F)(F)F)cc2)C(OC(C)=O)C1OC(C)=O (stereo not shown) [C33] | 32 ± 1 µg/mL (≈ 44.7 µM) | 71.5 ± 4.4% | 54.4 ± 3.3% | 176 ± 11.3 µg/mL (≈ 246 µM) | 305 ± 12.2 µg/mL (≈ 426 µM) | 53.0 ± 3.7% |  |
| CC(=O)OCC1OC(n2cnc3c(N4CCOCC4)nc(F)nc32)C(NS(=O)(=O)c2ccc(OC(F)(F)F)cc2)C(OC(C)=O)C1OC(C)=O (stereo not shown) [C34] | 33.8 ± 4.6 µg/mL (≈ 46 µM) | 67.4 ± 2.0% | 72.7 ± 2% | 53 ± 2.2 µg/mL (≈ 72.1 µM) | 53.8 ± 4.8 µg/mL (≈ 73.2 µM) | 65.6 ± 4.5% |  |
| CC(=O)OCC1OC(n2cnc3c(N4CCOCC4)ncnc32)C(NS(=O)(=O)c2cccc(OC(F)(F)F)c2)C(OC(C)=O)C1OC(C)=O (stereo not shown) [C35] | 17 ± 1.4 µg/mL (≈ 23.7 µM) | 67.9 ± 3.3% | 49.1 ± 1.6% | 457 ± 10.2 µg/mL (≈ 638 µM) | 33.9 ± 0.5 µg/mL (≈ 47.3 µM) | 68.9 ± 2.0% |  |
| Cc1ccc(S(=O)(=O)NC2C(O)C(O)C(CO)OC2n2cnc3c(N4CCOCC4)nc(Cl)nc32)cc1 (stereo not shown) [C36] | 283 ± 10.5 µg/mL (≈ 510 µM) | 57.3 ± 1.1% | 50.6 ± 3.6% | 313 ± 7.1 µg/mL (≈ 564 µM) | 562 ± 11.1 µg/mL (≈ 1010 µM) | 52.2 ± 0.8% |  |
| O=[N+]([O-])c1ccc(S(=O)(=O)NC2C(O)C(O)C(CO)OC2n2cnc3c(N4CCOCC4)ncnc32)cc1 (stereo not shown) [C37] | 2000 ± 21.8 µg/mL (≈ 3620 µM) | 36.2 ± 4.6% | 57.8 ± 3.4% | 280 ± 13.9 µg/mL (≈ 507 µM) | 344 ± 15.8 µg/mL (≈ 623 µM) | 50.6 ± 2.1% |  |
| O=S(=O)(NC1C(O)C(O)C(CO)OC1n1cnc2c(N3CCOCC3)nc(F)nc21)c1ccc(OC(F)(F)F)cc1 (stereo not shown) [C38] | 442 ± 12.6 µg/mL (≈ 726 µM) | 51.54 ± 0.3% | 51.6 ± 0.5% | 421 ± 7.4 µg/mL (≈ 692 µM) | 474 ± 27.7 µg/mL (≈ 779 µM) | 46.5 ± 1.0% |  |
| CNCC(=O)N[C@@H](CO)C(=O)N[C@H]1[C@H](O)[C@@H](O)[C@H](n2ccc(N)nc2=O)O[C@@H]1C(N)=O [Ningnanmycin, reference compound] |  | 54.5 ± 3.3% |  |  |  | 60.8 ± 3.1% | EC50 (PMMoV [1]): 258 ± 7.6 µg/mL (≈ 581 µM); EC50 (PMMoV [2]): 67.3 ± 3.5 µg/mL (≈ 152 µM); pest or weed control at 500 µg/mL (PMMoV [2]): 71.2 ± 6.1%; EC50 (PMMoV [4]): 285 ± 5.3 µg/mL (≈ 644 µM) |
| I3QHX5 (Octet, in vitro) (from UniProt I3QHX5 1-485) (natural protein) |  |  |  |  |  |  | Kd [6]: 0.013 µM |
